In article PMC6899576, “Structure‐Based Screening of Tetrazolylhydrazide Inhibitors versus KDM4 Histone Demethylases” (Chemmedchem, 2019) one finds Kd and IC50 data, which are given here for three compounds.

Assay [1] deals with T1, KDM4D (Homo sapiens, UniProt Q6B0I6).
T1 construct: catalytic core, residues 1-342 (11-342 visible in crystals); pQTEV N-terminal His6 tag removed by TEV protease; E. coli
T1 sequence (Q6B0I6 1-342): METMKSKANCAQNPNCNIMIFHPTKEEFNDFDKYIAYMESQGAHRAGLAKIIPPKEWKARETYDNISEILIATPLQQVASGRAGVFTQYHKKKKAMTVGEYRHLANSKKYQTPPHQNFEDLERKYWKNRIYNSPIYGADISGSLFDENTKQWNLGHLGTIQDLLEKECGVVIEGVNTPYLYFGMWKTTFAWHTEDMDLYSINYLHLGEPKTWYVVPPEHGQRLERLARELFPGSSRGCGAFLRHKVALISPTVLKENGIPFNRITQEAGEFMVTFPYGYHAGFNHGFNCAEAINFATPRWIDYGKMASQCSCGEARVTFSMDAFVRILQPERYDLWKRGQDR
The assay is described as follows: isothermal titration calorimetry. Type of assay: binding. An excerpt:
isothermal titration calorimetry on KDM4D

Assay [2] deals with T2, KDM4A (Homo sapiens, UniProt O75164).
T2 construct: catalytic domain, residues 1-359; pQTEV N-terminal His6 tag removed by TEV protease
T2 sequence (O75164 1-359): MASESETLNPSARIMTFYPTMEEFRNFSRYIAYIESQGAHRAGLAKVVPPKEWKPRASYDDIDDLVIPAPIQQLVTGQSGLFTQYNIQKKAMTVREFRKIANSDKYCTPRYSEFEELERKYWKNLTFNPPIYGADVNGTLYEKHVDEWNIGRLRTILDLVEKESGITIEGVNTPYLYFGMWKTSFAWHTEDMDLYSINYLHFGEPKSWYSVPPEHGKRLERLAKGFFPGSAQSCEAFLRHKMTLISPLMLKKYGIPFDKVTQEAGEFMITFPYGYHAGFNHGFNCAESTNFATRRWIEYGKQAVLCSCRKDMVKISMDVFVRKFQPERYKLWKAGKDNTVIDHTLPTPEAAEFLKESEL
Put plainly: LANCE Ultra antibody-based demethylase assay. Type of assay: biochemical. An excerpt:
LANCE Ultra antibody-based demethylase assay on KDM4A
(TR-FRET usually uses a lanthanide donor and a delayed reading to cut background.)

Broadly, the Kd is the equilibrium constant for the complex coming apart. Low readings indicate tighter binding, high ones weaker binding. Usually IC50 stands for the concentration needed to halve the response being measured. In assay [1], `NNC(=O)c1cccc(-c2nn[nH]n2)c1` [compound 7] showed a dissociation constant Kd of 41 ± 15 µM. The IC50 in assay [2] was determined as 195 ± 39 µM.

`NNC(=O)c1ccc(-c2nn[nH]n2)cc1` [compound 6]: in assay [2], the IC50 stood at 216 ± 33 µM.

Compound `NNC(=O)Cc1nnn[nH]1` [compound 1] came in with a Kd in assay [1] of 2.3 ± 0.9 µM.
